In patent publication US11274106B2, “Topoisomerase inhibitors with antibacterial and anticancer activity” (THE BOARD OF TRUSTEES OF THE UNIVERSITY OF ILLINOIS, priority 2017, dated 2022):
Values after ≈ are worked out from the molar mass of the structure shown. Where two headings read alike, the source gives them in different places.

Legend:
S. aureus = experiment: Antibacterial MIC, microbroth dilution, S. aureus; type: cell-based; conditions: for MIC: Staphylococcus aureus
Protocol: (§1) To investigate this possibility, the antibacterial effects of the DNM derivatives was assessed against strains of E. coli, S. aureus, and MRSA using the microbroth dilution method (Table 2).

[1] = tested on: MDA-MB-231 triple negative breast cancer cells; experiment: Antiproliferative SRB assay, MDA-MB-231; type: cell-based; conditions: for IC50: mean ± SEM
Protocol: FIG. 1. […] Cell death measured by SRB assay after 72 hour of compound exposure (n≥3 biological replicates, error bars show SEM). IC50 values given as mean±SEM from ≥3 biological replicates.
To investigate the feasibility of developing a class of antitumor antibiotics based upon the DNM scaffold, the ability of the DNM to exert an antiproliferative effect against MDA-MB-231 breast cancer cells was evaluated.

E. coli = experiment: Antibacterial MIC, microbroth dilution, E. coli; type: cell-based; conditions: for MIC: Escherichia coli
Protocol: as §1

MRSA = experiment: Antibacterial MIC, microbroth dilution, MRSA; type: cell-based, S. aureus; conditions: Staphylococcus aureus, MRSA; microbroth dilution
Protocol: as §1

HL-60 = experiment: Cell viability Alamar Blue assay, HL-60; type: cell-based; conditions: Homo sapiens, HL-60, 72 h, Leukemia, mean ± SEM
Description: (§2) Topoisomerase inhibitors such as DOX are used as single agent and in combination therapy to treat a wide-range of cancer types.

IMR32 = experiment: Antiproliferative SRB assay, IMR32; type: cell-based; conditions: Homo sapiens, IMR-32, 72 h, Neuroblastoma, mean ± SEM
Description: as §2

ES-2 = experiment: Antiproliferative SRB assay, ES-2; type: cell-based; conditions: Homo sapiens, ES-2, 72 h, Cervical cancer (footnote f), mean ± SEM
Description: as §2

BT-474 = experiment: Antiproliferative SRB assay, BT-474; type: cell-based; conditions: Homo sapiens, BT-474, 72 h, Breast cancer, mean ± SEM
Description: as §2

HCT-116 = experiment: Antiproliferative SRB assay, HCT-116; type: cell-based; conditions: Homo sapiens, HCT-116, 72 h, Colon cancer, mean ± SEM
Description: as §2

HeLa = experiment: Antiproliferative SRB assay, HeLa; type: cell-based; conditions: Homo sapiens, 72 h, Ovarian cancer (footnote e), mean ± SEM
Description: as §2

panel of cancer cells = experiment: Average over panel of 10 cancer cell lines; type: cell-based; conditions: 72 hour, read-out: Average (mean) IC50 over the cell line panel
Description: as §2

Jurkat = experiment: Cell viability Alamar Blue assay, Jurkat; type: cell-based; conditions: Homo sapiens, 72 h, Leukemia, mean ± SEM
Description: as §2

HOS = experiment: Antiproliferative SRB assay, HOS; type: cell-based; conditions: Homo sapiens, 72 h, Osteosarcoma, mean ± SEM
Description: as §2

H460 = experiment: Antiproliferative SRB assay, H460; type: cell-based; conditions: Homo sapiens, NCI-H460, 72 h, Lung cancer, mean ± SEM
Description: as §2

Top2cc = biological target: T1, Top2cc (Homo sapiens, UniProt P11388); experiment: ICE assay for Top2α-DNA complexes in H460 cells; type: cell-based; conditions: 50 μM
T1 construct: endogenous in cells; host or cells: H460
Description: FIG. 3. DNM derivatives are dual Top1/Top2 inhibitors with different modes of inhibition. (a) Inhibition of decatenating ability of Top2α with increasing concentrations of ETP, 6DNM-NH3, 6DNM-Pyr, and Ph-6DNM-NH3. K, kinetoplast DNA; OC, open circular; R, relaxed. (b) Inhibition of relaxing ability of Top1 with increasing concentrations of CPT, 6DNM-NH3, 6DNM-Pyr, and Ph-6DNM-NH3. R, relaxed; S, supercoiled. (c) Detection of Top2a-DNA using the ICE Assay. Genomic DNA ([…]) of H460 cells treated with drugs (50 μM, 30 min) was applied to nitrocellulose membrane and immunoblotted for Top2a. (d) Detection of Top1-DNA adducts using ICE Assay. Same procedure as (c) using 1 μg of DNA. (e) Inhibition of ETP-induced poisoning of Top2a. H460 cells treated with indicated concentrations of inhibitor for 30 min prior to treatment with ETP (50 μM). Detection of Top2α as in (c).
The in vivo complex of enzyme (ICE) assay can be used to distinguish poisons from catalytic inhibitors. The ICE assay consists of isolating the genomic DNA of cells treated with small molecules in a manner the preserves covalent DNA-protein complexes and applying it to nitrocellulose membranes. Because topoisomerase poisons stabilize the cleavage complexes, DNA-protein complexes can be detected by immunoblotting for specific topoisomerases, whereas catalytic inhibitors produce no such result. To determine if DNM derivatives are acting as poisons or catalytic inhibitors, H460 human lung cells were exposed to 50 μM of the Top2 poison ETP, Ph-6DNM-NH3, 6DNM-NH3, and 6DNM-Pyr and assessed for their ability to stabilize Top2cc. […] In a similar fashion, next investigated was the mode of Top1 inhibition using the ICE assay (FIG. 3b).

[2] = Homo sapiens, MDA-MB-231, 72 h, SRB assay, 72 hour compound exposure, read-out: MDA-MB-231 IC50
[3] = SRB assay, 72 hour compound exposure, read-out: MDA-MB-231 IC50
[4] = Homo sapiens, MDA-MB-231, 72 h, Breast cancer, SRB assay, read-out: 72 hour IC50, MDA-MB-231

T1 sequence (P11388 whole entry): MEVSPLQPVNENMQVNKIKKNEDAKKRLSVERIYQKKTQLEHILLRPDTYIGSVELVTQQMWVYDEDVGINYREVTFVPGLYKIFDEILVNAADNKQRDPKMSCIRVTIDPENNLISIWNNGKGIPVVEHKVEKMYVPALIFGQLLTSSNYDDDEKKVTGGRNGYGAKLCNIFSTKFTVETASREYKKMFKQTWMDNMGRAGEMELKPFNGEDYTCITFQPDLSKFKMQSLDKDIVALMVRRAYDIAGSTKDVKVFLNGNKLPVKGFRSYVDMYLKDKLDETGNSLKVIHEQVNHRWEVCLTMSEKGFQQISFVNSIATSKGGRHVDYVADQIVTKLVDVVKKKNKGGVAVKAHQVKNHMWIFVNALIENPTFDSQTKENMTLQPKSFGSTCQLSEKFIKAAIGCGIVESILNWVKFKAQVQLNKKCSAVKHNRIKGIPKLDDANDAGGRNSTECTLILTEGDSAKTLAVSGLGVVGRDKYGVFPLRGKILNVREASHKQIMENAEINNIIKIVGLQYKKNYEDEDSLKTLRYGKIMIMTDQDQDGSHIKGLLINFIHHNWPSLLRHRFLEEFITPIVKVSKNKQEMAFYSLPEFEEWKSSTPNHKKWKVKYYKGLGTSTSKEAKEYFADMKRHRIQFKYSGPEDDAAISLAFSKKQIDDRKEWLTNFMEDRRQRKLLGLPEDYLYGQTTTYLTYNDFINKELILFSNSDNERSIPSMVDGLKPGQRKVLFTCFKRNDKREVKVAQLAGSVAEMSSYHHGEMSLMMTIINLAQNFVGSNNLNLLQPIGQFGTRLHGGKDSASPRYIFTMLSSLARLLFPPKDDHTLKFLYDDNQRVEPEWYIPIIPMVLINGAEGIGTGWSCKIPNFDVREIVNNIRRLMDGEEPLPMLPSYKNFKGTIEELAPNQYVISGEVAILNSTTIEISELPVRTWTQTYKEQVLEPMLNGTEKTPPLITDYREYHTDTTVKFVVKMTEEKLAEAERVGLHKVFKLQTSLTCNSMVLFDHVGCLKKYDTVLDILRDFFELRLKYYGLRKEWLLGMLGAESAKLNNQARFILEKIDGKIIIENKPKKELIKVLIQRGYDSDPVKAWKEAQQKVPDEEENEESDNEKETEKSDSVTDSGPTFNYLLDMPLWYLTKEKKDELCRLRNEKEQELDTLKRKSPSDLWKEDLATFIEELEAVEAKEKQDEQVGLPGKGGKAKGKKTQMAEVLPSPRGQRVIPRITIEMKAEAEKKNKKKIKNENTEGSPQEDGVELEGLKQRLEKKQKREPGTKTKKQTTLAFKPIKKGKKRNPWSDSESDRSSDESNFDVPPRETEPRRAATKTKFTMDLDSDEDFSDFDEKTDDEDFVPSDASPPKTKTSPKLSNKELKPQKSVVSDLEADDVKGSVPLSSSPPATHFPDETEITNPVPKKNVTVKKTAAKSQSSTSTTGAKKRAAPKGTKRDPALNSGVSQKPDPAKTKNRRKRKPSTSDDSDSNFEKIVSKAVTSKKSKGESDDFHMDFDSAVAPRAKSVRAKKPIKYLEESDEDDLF

`Cc1cc(=O)n(-c2ccccc2)c2c3c4c(cc12)c(C)cc(=O)n4C(CN)CO3` (stereo not drawn) [Compound 13] was tested, and the MIC (S. aureus) was over 16 µg/mL, the IC50 [1, 2] was 1600 ± 600 nM and the MIC (E. coli) was over 16 µg/mL.

For `Cc1cc(=O)n2c3c(c4c(cc13)c1ccccc1c(=O)n4C)OCC2` [Compound 14], the MIC (S. aureus) was 2 µg/mL (≈ 6.02 µM), the MIC (MRSA) was 0.5 µg/mL (≈ 1.5 µM) and the IC50 [1, 2] was 930 ± 400 nM. It also gave an MIC (E. coli) of over 16 µg/mL.

With `Cc1cc(=O)n2c3c(c4c(cc13)c1ccccc1c(=O)n4C)OCC2CN` (stereo not drawn) [Compound 16] the “S. aureus MIC” value (S. aureus) was 1 µg/mL, the IC50 [1, 3] was 30 ± 6 nM and the “E. coli MIC” value (E. coli) was 0.25 µg/mL.

With `Cc1cc(=O)n2c3c(c4c(cc13)c1ccccc1c(=O)n4C)OCC2CN` (stereo not drawn) [Compound 17] the “S. aureus MIC” value (S. aureus) was 4 µg/mL, the IC50 [1, 3] was 130 ± 30 nM and the “E. coli MIC” value (E. coli) was 2 µg/mL.

`Cc1cc(=O)n(C)c2c3c4c(cc12)c(C)cc(=O)n4C(CN)CO3` (stereo not drawn) [Compound 18] was tested, and the “S. aureus MIC” value (S. aureus) was 0.5 µg/mL, the IC50 [1, 3] was 200 ± 10 nM and the “E. coli MIC” value (E. coli) was 0.25 µg/mL.

With `Cc1cc(=O)n(C)c2c3c4c(cc12)c(C)cc(=O)n4C(CN)CO3` (stereo not drawn) [Compound 19] the “S. aureus MIC” value (S. aureus) was 32 µg/mL, the IC50 [1, 3] was 4000 ± 800 nM and the “E. coli MIC” value (E. coli) was over 16 µg/mL.

In the case of `Cc1cc(=O)n(C)c2c3c4c(cc12)c(C)cc(=O)n4C(CN1CCCCC1)CO3` (stereo not drawn) [Compound 21], the IC50 (HL-60) is reported as 55 ± 11 nM, the MIC (S. aureus) is reported as 0.5 µg/mL (≈ 1.27 µM) and the IC50 (IMR32) is reported as 6 ± 1.6 nM. The IC50 (ES-2) was 22 ± 6 nM, the IC50 (BT-474) was 90 ± 10 nM and the IC50 (HCT-116) was 8 ± 1 nM. For the same compound, the IC50 (HeLa) was 46 ± 2 nM, the IC50 [1, 4] was 17 ± 1 nM and the IC50 [1, 2] was 17 ± 1 nM. The IC50 (panel of cancer cells) was 31 nM, the IC50 (Jurkat) was 33 ± 4 nM and the IC50 (HOS) was 21 ± 3 nM. For the same compound, the IC50 (H460) was 11 ± 2 nM and the MIC (E. coli) was 4 µg/mL (≈ 10.2 µM).

For `Cc1cc(=O)n2c3c(c4c(cc13)c1ccccc1c(=O)n4C)OCC2CN1CCCC1` (stereo not drawn) [Compound 22], the IC50 (HL-60) was 94 ± 6 nM, the MIC (S. aureus) was 0.25 µg/mL (≈ 0.602 µM) and the IC50 (IMR32) was 4.9 ± 0.1 nM. For the same compound, the IC50 (ES-2) was 23 ± 4 nM, the IC50 (BT-474) was 235 ± 1 nM and the IC50 (HCT-116) was 23 ± 3 nM. For the same compound, the IC50 (HeLa) was 46 ± 2 nM, the IC50 [1, 4] was 31 ± 3 nM and the IC50 [1, 2] was 31 ± 3 nM. For the same compound, the IC50 (panel of cancer cells) was 55 nM, the IC50 (Jurkat) was 69 ± 7 nM and the IC50 (HOS) was 16 ± 0.4 nM. For the same compound, the IC50 (H460) was 7.2 ± 0.6 nM and the MIC (E. coli) was 1 µg/mL (≈ 2.41 µM).

In the case of `Cc1cc(=O)n2c3c(c4c(cc13)c1ccccc1c(=O)n4C)OCC2CN1CCCCC1` (stereo not drawn) [Compound 23], the IC50 (HL-60) is reported as 440 ± 130 nM, the MIC (S. aureus) is reported as 0.5 µg/mL (≈ 1.16 µM) and the IC50 (IMR32) is reported as 20 ± 0.2 nM. The IC50 (ES-2) was 67 ± 8 nM, the IC50 (BT-474) was 1000 ± 100 nM and the IC50 (HCT-116) was 79 ± 10 nM. It also gave an IC50 (HeLa) of 136 ± 5 nM, an IC50 [1, 4] of 79 ± 7 nM and an IC50 [1, 2] of 79 ± 7 nM. It also gave an IC50 (panel of cancer cells) of 214 nM, an IC50 (Jurkat) of 240 ± 40 nM and an IC50 (HOS) of 55 ± 1 nM. For the same compound, the IC50 (H460) was 24 ± 2 nM and the MIC (E. coli) was 2 µg/mL (≈ 4.66 µM).

With `COc1cccc2c1C(=O)c1c(O)c3c(c(O)c1C2=O)C[C@@](O)(C(=O)CO)C[C@@H]3O[C@H]1C[C@H](N)[C@H](O)[C@H](C)O1` [Doxorubicin, doxorubicin, reference compound] the IC50 (HL-60) was 84 ± 11 nM, the IC50 (IMR32) was 2.9 ± 0.4 nM and the IC50 (ES-2) was 32 ± 3 nM. The IC50 (BT-474) was 260 ± 70 nM, the IC50 (HeLa) was 24 ± 9 nM and the “Antiproliferative effect against MDA-MB-231 cells” value (“Antiproliferative effect” below) ([1]; FIG. 1, SRB assay, 72 hour) was “sensitive”. For the same compound, the IC50 [1, 4] was 21 ± 2 nM, the IC50 (panel of cancer cells) was 55 nM and the IC50 (Jurkat) was 17 ± 3 nM. For the same compound, the IC50 (HOS) was 19 ± 7 nM and the IC50 (H460) was 6.1 ± 1 nM.

In the case of `COc1cc([C@@H]2c3cc4c(cc3[C@@H](O[C@@H]3O[C@@H]5CO[C@@H](C)O[C@H]5[C@H](O)[C@H]3O)[C@H]3COC(=O)[C@H]23)OCO4)cc(OC)c1O` [ETP, etoposide, reference compound], the “Accumulation of Top2cc (ICE assay)” value (Top2cc) is reported as “resulted in the accumulation of Top2cc” and the “Antiproliferative effect” value ([1]; FIG. 1, SRB assay, 72 hour) is reported as “sensitive”.

With `O=C(O)c1cn(C2CC2)c2cc(N3CCNCC3)c(F)cc2c1=O` [ciprofloxacin, reference compound] the “Antiproliferative effect” value ([1]; doses as high as 50 μM) was “only minimal effects”.
